In patent publication US20050124625A1, “Piperazine derivatives and their use as modulators of nuclear hormone receptor function” (priority 2003, published 2005):

Experiments:
[1] = target: endogenous glucocorticoid receptor (Homo sapiens, UniProt P04150); details: concentration of ≦10 μM; 10 ng/ml PMA; A549 cells
Experimental: Cells are plated the day before the assay at approximately 40000 cells/well. […] Activity is measured by analysis in a luminometer as compared to control experiments treated with buffer or dexamethasome.

[2] = system: immature castrated rats, ventral prostate (VP) and seminal vesicles (SV); assay: Wet prostate weight assay, AR antagonist assay; assay type: in vivo, rat; details: for EC50 (organ weight increase): immature castrated rats
From the text: Biol. Med., 83, 175 (1953); P. C.
The basis of this assay is the fact that male sexual accessory organs, such as the prostate and seminal vesicles, play an important role in reproductive function. These glands are stimulated to grow and are maintained in size and secretory function by the continued presence of serum testosterone (T), which is the major serum androgen (>95%) produced by the Leydig cells in the testis under the control of the pituitary luteinizing hormone (LH) and follicle stimulating hormone (FSH). […] Adrenal androgens also contribute about 20% of total DHT in the rat prostate, compared to 40% of that in 65-year-old men. F. Labrie et al. Clin. Invest. Med., 16, 475-492 (1993). However, this is not a major pathway, since in both animals and humans, castration leads to almost complete involution of the prostate and seminal vesicles without concomitant adrenalectomy. […] […] […] Since the male sex organs are the tissues most responsive to modulation of the androgen activity, this model is used to determine the androgen dependent growth of the sex accessory organs in immature castrated rats.
Five days after surgery these castrated rats (60-70 g, 23-25 day-old) are dosed for 3 days. […] Animals are dosed (v/w) at 0.5 ml of vehicle/100 g body weight. […] Control vehicle • 2.
At the end of the 3-day treatment, the animals are sacrificed, and the ventral prostate weighed. To compare data from different experiments, the sexual organs weights are first standardized as mg per 100 g of body weight, and the increase in organ weight induced by TP was considered as the maximum increase (100%). ANOVA followed by one-tailed Student or Fischer's exact test is used for statistical analysis.
The gain and loss of sexual organ weight reflect the changes of the cell number (DNA content) and cell mass (protein content), depending upon the serum androgen concentration. See Y. Okuda et al., J. Urol., 145, 188-191 (1991), the disclosure of which is herein incorporated by reference. Therefore, measurement of organ wet weight is sufficient to indicate the bioactivity of androgens and androgen antagonist.

[3] = system: castrated rats, levator ani, seminal vesicles (SV) and prostate; assay: Levator ani & wet prostate weight assay, AR agonist assay; assay type: in vivo, rat; details: for EC50 (organ weight increase): castrated rats
From the text: The activity of compounds of the present invention as AR agonists is investigated in an immature male rat model, a recognized test of anabolic effects in muscle and sustaining effects in sex organs for a given compound, as described in L. G. Hershberger et al., Proc. Soc. Expt. Biol. Med., 83, 175 (1953); B. L. Beyler et al, “Methods for evaluating anabolic and catabolic agents in laboratory animals”, J. Amer. Med. Women's Ass., 23, 708 (1968); H. Fukuda et al., “Investigations of the levator ani muscle as an anabolic steroid assay”, Nago Dai. Yak. Ken. Nem. 14, 84 (1966) the disclosures of which are herein incorporated by reference.
The basis of this assay lies in the well-defined action of androgenic agents on the maintenance and growth of muscle tissues and sexual accessory organs in animals and man. Androgenic steroids, such as testosterone (T), have been well characterized for their ability to maintain muscle mass. Treatment of animals or humans after castrations with an exogenous source of T results in a reversal of muscular atrophy. The effects of T on muscular atrophy in the rat levator ani muscle have been well characterized. M. Masuoka et al., “Constant cell population in normal, testosterone deprived and testosterone stimulated levator ani muscles” Am. J. Anat. 119, 263 (1966); Z. Gori et al., “Testosterone hypertrophy of levator ani muscle of castrated rats. I. Quantitative data” Boll.-Soc. Ital. Biol. Sper. 42, 1596 (1966); Z. Gori et al., “Testosterone hypertrophy of levator ani muscle of castrated rats. II. Electron-microscopic observations” Boll.-Soc. Ital. Biol. Sper. 42, 1600 (1966); A. Boris et al., Steroids 15, 61 (1970). As described above, the effects of androgens on maintenance of male sexual accessory organs, such as the prostate and seminal vesicles, is well described. Castration results in rapid involution and atrophy of the prostate and seminal vesicles. This effect can be reversed by exogenous addition of androgens. […]

endogenous glucocorticoid receptor, sequence (P04150 whole entry): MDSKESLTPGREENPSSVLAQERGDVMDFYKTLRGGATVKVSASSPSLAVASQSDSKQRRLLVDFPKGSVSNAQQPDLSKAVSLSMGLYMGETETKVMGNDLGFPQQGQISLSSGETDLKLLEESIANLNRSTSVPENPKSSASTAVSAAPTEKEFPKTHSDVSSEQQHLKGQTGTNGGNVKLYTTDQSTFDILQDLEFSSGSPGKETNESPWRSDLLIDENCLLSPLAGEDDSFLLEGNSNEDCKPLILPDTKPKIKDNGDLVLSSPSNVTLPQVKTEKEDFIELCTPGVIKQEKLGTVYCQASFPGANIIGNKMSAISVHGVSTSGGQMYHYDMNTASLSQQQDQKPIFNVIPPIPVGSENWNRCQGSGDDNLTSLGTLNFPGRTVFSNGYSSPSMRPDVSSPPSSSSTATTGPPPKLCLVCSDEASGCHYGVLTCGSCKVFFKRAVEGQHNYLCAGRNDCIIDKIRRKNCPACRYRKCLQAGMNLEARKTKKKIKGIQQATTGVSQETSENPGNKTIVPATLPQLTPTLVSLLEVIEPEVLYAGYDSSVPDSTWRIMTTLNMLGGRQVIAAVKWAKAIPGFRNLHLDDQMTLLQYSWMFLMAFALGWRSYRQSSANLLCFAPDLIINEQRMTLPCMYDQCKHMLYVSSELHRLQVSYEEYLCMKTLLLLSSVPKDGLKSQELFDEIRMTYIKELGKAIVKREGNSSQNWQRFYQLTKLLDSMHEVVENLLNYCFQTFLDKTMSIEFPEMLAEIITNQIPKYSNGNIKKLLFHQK

Row | Compound | suppression of activity (% inhibition of the reporter system vs buffer control with PMA) [1] [%] | EC50 (organ weight increase) [2] | EC50 (organ weight increase) [3] | ED80 ([2]; immature castrated rat model) [mg] | potency higher than free T ([2]; rat, in vivo) | potency higher than free T ([3]; rat, in vivo)
1 | C[C@@H]1C[C@H]2[C@@H]3CCC4=CC(=O)C=C[C@]4(C)[C@@]3(F)[C@@H](O)C[C@]2(C)[C@@]1(O)C(=O)CO [dexamethasone] | 65 |  |  |  |  | 
2 | C[C@]12CC[C@H]3[C@@H](CCC4=CC(=O)CC[C@@]43C)[C@@H]1CC[C@@H]2O [T, testosterone] |  | about 1 mg | about 1 mg |  |  | 
3 | CCC(=O)O[C@H]1CC[C@H]2[C@@H]3CCC4=CC(=O)CC[C@]4(C)[C@H]3CC[C@]12C [TP, testosterone propionate] |  | ~0.03 mg | ~0.03 mg | 0.1 | 10-30 fold | 10-30 fold
